This note sets out measurements from patent publication US11339161B2, “Triazolo pyridines as modulators of gamma-secretase” (Boehringer Ingelheim International GmbH, priority 2017, dated 2022).

Read-outs that look alike come from different tables or passages of the source.

Usually inhibition stands for the relative decrease from the control value, in per cent.

One experiment concerns the target LYN B (Homo sapiens, UniProt P07948). Kind of experiment: Z'-LYTE SelectScreen biochemical kinase assay LYN B. The text has this: (§1) Thermo Fisher Scientific SelectScreen™ Biochemical Kinase Profiling Service Z′-LYTE™ Screening Protocol and Assay Conditions Assay Theory
(§2) The […] biochemical assay employs a fluorescence-based, coupled-enzyme format and is based on the differential sensitivity of phosphorylated and non-phosphorylated peptides to proteolytic cleavage. The peptide substrate is labeled with two fluorophores—one at each end—that make up a FRET pair. In the primary reaction, the kinase transfers the gamma-phosphate of ATP to a single tyrosine, serine or threonine residue in a synthetic FRET-peptide. In the secondary reaction, a site-specific protease recognizes and cleaves non-phosphorylated FRET-peptides. Phosphorylation of FRET-peptides suppresses cleavage by the Development Reagent. Cleavage disrupts FRET between the donor (i.e., coumarin) and acceptor (i.e., fluorescein) fluorophores on the FRET-peptide, whereas uncleaved, phosphorylated FRET-peptides maintain FRET. A ratiometric method, which calculates the ratio (Emission Ratio=Coumarin emission (445 nm)/Fluorescein emission (520 nm)) of donor emission to acceptor emission after excitation of the donor fluorophore at 400 nm, is used to quantitate reaction progress, as shown in the equation below. A significant benefit of this ratiometric method for quantitating reaction progress is the elimination of well-to-well variations in FRET-peptide concentration and signal intensities. As a result, the assay yields very high Z′-factor values (>0.7) at a low percent phosphorylation. Both cleaved and uncleaved FRET-peptides contribute to the fluorescence signals and therefore to the Emission Ratio. The extent of phosphorylation of the FRET-peptide can be calculated from the Emission Ratio. The Emission Ratio will remain low if the FRET-peptide is phosphorylated (i.e., no kinase inhibition) and will be high if the FRET-peptide is non-phosphorylated (i.e., kinase inhibition).
(§3) The Test Compounds are screened in 1% DMSO (final) in the well. For 10 point titrations, 3-fold serial dilutions are conducted from the starting concentration of the customer's choosing.
(§4) All Peptide/Kinase Mixtures are diluted to a 2× working concentration in the appropriate Kinase Buffer (see section Kinase Specific Assay Conditions for a complete description).
(§5) All ATP Solutions are diluted to a 4× working concentration in Kinase Buffer (50 mM HEPES pH 7.5, 0.01% BRIJ-35, 10 mM MgCl2, 1 mM EGTA). ATP Km apparent is previously determined using a Z″-LYTE assay.
(§6) The Development Reagent is diluted in Development Buffer (see section Kinase-Specific Assay Conditions—Direct and Cascade for a complete description).
(§7) Bar-coded Corning, low volume NBS, black 384-well plate (Corning Cat. #4514) • 1. 100 nL—100× Test Compound in 100% DMSO • 2. 2.4 μL—Kinase buffer • 3. 5 μL—2× Peptide/Kinase Mixture • 4. 2.5 μL—4×ATP Solution • 5. 30—second plate shake • 6. 60—minute Kinase Reaction incubation at room temperature • 7. 5 μL—Development Reagent Solution • 8. 30—second plate shake • 9. 60—minute Development Reaction incubation at room temperature • 10. Read on fluorescence plate reader and analyze the data Z′-LYTE Assay Controls
(§8) SelectScreen Kinase Profiling Service uses XLfit from IDBS. The dose response curve is curve fit to model number 205 (sigmoidal dose-response model).
The 2×LYN B/Tyr 02 mixture is prepared in 50 mM HEPES pH 7.5, 0.01% BRIJ-35, 10 mM MgCl2, 1 mM EGTA. The final 10 μL Kinase Reaction consists of 0.85-14.8 ng LYN B and 2 μM Tyr 02 in 50 mM HEPES pH 7.5, 0.01% BRIJ-35, 10 mM MgCl2, 1 mM EGTA. After the 1 hour Kinase Reaction incubation, 5 μL of a 1:128 dilution of Development Reagent A is added.

The target of another experiment is RET (Homo sapiens, UniProt P07949). Put plainly: Z'-LYTE SelectScreen biochemical kinase assay RET.
Source text: as §1, §2, §3, §4, §5, §6, §7, §8
The 2×RET/Tyr 02 mixture is prepared in 50 mM HEPES pH 7.5, 0.01% BRIJ-35, 10 mM MgCl2, 1 mM EGTA. The final 10 μL Kinase Reaction consists of 0.49-3.64 ng RET and 2 μM Tyr 02 in 50 mM HEPES pH 7.5, 0.01% BRIJ-35, 10 mM MgCl2, 1 mM EGTA. After the 1 hour Kinase Reaction incubation, 5 μL of a 1:128 dilution of Development Reagent A is added.

The target of a further experiment is PTK2 (FAK) (Homo sapiens, UniProt Q05397). Put plainly: Z'-LYTE SelectScreen biochemical kinase assay PTK2 (FAK).
Source text: as §1, §2, §3, §4, §5, §6, §7, §8
The 2×PTK2 (FAK)/Tyr 07 mixture is prepared in 50 mM HEPES pH 7.5, 0.01% BRIJ-35, 10 mM MgCl2, 1 mM EGTA. The final 10 μL Kinase Reaction consists of 12.5-100 ng PTK2 (FAK) and 2 μM Tyr 07 in 50 mM HEPES pH 7.5, 0.01% BRIJ-35, 10 mM MgCl2, 1 mM EGTA. After the 1 hour Kinase Reaction incubation, 5 μL of a 1:16 dilution of Development Reagent B is added.

The next experiment concerns the target FLT4 (VEGFR3) (Homo sapiens, UniProt P35916). Kind of experiment: Z'-LYTE SelectScreen biochemical kinase assay FLT4 (VEGFR3).
Source text: as §1, §2, §3, §4, §5, §6, §7, §8
The 2×FLT4 (VEGFR3)/Tyr 04 mixture is prepared in 50 mM HEPES pH 7.5, 0.01% BRIJ-35, 10 mM MgCl2, 4 mM MnCl2, 1 mM EGTA, 2 mM DTT. The final 10 μL Kinase Reaction consists of 2-10.5 ng FLT4 (VEGFR3) and 2 μM Tyr 04 in 50 mM HEPES pH 7.5, 0.01% BRIJ-35, 10 mM MgCl2, 2 mM MnCl2, 1 mM EGTA, 1 mM DTT. After the 1 hour Kinase Reaction incubation, 5 μL of a 1:64 dilution of Development Reagent B is added.

Setting [1] is: 10 μmolar compound concentration, ATP at Km app, read-out: LYN B inhibition.
The mark [2] stands for this setting: read-out: % Inhibition mean LYN B.
The mark [3] stands for this setting: 10 μmolar compound concentration, ATP at Km app, read-out: RET inhibition.
[4] abbreviates: read-out: % Inhibition mean RET.
Setting [5] is: 10 μmolar compound concentration, ATP at Km app, read-out: PTK2 (FAK) inhibition.
Setting [6] is: read-out: % Inhibition mean PTK2 (FAK).
[7] abbreviates: 10 μmolar compound concentration, ATP at Km app, read-out: FLT4 (VEGFR3) inhibition.
Setting [8] is: read-out: % Inhibition mean FLT4 (VEGFR3).

Sequence of PTK2 (FAK) (Q05397 whole entry): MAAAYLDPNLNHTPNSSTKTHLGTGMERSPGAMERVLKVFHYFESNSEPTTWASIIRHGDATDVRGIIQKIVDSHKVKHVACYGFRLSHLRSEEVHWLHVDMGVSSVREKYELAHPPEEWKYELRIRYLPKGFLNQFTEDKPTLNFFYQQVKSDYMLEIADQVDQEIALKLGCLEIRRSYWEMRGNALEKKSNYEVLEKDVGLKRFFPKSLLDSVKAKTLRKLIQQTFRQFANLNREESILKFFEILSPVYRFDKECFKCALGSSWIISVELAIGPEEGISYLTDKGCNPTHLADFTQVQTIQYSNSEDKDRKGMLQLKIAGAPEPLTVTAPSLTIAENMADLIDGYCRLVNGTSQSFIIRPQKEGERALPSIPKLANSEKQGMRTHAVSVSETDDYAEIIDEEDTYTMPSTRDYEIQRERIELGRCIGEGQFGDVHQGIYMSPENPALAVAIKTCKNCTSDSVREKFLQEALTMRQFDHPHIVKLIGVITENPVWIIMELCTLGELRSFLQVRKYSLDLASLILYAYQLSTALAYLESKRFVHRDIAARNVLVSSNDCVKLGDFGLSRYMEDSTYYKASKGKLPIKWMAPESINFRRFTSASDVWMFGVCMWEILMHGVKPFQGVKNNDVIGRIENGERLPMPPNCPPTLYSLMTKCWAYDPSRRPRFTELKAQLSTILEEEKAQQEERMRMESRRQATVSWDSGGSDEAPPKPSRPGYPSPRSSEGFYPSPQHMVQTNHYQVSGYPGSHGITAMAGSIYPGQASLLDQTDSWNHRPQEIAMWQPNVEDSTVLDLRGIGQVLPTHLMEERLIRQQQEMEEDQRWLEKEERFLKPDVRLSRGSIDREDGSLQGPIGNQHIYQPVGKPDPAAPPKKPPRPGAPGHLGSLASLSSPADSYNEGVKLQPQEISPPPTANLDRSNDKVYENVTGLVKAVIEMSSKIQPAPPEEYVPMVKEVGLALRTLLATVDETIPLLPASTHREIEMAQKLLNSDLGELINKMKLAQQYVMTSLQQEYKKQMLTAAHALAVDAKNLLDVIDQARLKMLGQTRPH
Sequence of RET (P07949 29-1114): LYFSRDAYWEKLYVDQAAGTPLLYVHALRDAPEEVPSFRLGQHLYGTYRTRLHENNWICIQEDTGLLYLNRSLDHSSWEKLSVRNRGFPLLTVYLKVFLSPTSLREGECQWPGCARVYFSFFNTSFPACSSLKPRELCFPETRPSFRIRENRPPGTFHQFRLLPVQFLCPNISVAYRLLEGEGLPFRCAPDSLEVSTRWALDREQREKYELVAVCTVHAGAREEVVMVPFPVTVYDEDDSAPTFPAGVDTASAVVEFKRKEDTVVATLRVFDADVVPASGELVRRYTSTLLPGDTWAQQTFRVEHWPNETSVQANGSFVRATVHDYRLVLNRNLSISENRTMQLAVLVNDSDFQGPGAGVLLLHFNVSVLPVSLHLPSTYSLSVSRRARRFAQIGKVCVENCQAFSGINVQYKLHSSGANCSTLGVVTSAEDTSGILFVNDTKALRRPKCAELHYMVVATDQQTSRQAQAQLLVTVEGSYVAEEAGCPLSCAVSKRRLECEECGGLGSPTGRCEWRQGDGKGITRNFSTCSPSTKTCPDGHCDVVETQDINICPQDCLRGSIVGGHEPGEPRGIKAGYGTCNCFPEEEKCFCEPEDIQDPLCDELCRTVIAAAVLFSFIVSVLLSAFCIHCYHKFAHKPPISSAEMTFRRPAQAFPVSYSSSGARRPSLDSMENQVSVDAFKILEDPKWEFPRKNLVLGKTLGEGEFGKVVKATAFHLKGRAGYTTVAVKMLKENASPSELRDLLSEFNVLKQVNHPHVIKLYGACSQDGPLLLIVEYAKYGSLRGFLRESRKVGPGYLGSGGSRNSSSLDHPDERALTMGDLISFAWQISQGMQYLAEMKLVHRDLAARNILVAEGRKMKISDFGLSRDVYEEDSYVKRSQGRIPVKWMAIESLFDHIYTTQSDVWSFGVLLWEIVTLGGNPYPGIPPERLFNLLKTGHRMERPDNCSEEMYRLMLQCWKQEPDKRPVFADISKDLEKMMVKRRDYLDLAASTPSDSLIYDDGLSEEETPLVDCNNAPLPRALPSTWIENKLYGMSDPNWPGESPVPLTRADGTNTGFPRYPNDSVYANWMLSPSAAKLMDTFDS
Sequence of LYN B (P07948 1-491 isoform P07948-2): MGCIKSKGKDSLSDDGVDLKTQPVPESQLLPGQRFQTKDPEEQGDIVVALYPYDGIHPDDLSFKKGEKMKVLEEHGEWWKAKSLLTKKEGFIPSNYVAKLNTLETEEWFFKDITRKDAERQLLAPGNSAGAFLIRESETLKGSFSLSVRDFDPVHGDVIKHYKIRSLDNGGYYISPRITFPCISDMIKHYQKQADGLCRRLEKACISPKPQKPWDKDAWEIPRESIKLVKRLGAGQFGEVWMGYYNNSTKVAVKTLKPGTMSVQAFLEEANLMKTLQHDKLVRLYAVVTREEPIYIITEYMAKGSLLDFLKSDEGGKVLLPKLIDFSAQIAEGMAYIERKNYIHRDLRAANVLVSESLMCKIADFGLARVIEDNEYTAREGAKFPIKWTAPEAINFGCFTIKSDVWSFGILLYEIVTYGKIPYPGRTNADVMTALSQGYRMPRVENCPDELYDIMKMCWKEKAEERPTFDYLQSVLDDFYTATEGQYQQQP
Sequence of FLT4 (VEGFR3) (P35916 25-1363): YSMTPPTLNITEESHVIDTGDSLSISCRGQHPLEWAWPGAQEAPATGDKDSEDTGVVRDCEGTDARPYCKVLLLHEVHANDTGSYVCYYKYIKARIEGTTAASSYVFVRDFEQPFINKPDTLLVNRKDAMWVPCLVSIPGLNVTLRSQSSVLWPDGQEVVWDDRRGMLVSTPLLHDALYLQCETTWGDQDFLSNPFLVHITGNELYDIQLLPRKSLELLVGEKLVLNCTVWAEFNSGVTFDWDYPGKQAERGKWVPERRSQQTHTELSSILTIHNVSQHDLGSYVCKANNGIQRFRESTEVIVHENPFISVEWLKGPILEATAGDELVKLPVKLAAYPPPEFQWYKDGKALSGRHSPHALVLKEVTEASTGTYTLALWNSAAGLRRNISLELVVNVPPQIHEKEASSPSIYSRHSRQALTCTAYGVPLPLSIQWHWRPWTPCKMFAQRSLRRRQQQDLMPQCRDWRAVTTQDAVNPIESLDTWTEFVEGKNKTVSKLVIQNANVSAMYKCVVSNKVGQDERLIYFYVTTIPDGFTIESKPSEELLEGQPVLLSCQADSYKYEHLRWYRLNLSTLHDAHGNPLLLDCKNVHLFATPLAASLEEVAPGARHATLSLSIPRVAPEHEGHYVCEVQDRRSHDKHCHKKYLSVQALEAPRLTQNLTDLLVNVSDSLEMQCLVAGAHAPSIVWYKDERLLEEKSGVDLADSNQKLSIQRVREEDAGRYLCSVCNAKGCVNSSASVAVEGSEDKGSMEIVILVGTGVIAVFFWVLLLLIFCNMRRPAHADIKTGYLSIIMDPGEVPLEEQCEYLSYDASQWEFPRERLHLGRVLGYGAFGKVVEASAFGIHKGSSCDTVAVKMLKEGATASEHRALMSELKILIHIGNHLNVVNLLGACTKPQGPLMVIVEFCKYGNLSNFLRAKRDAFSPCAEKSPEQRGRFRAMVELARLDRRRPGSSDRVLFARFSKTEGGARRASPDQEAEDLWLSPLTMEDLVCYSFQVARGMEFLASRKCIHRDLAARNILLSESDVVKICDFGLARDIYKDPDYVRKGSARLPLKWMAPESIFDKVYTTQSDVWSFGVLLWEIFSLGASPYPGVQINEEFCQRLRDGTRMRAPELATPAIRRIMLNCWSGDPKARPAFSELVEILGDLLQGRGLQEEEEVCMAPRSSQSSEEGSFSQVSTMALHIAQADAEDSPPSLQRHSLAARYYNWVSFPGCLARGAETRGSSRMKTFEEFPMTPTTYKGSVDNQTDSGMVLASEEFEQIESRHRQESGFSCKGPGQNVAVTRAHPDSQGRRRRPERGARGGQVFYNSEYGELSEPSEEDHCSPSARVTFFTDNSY

Regarding `CCn1ncc2c1CCC(Nc1nc3c(-c4cnccc4OC)cccn3n1)C2` (centres unmarked) [Example 68, (1-Ethyl-4,5,6,7-tetrahydro-1H-indazol-5-yl)-[8-(4-methoxy-pyridin-3-yl)-[1,2,4]triazolo[1,5-a]pyridine-2-yl]-amine], the inhibition at 10 µM at LYN B (setting [1]) was less than 40%; on LYN B (setting [2]) it was 22%; at RET (setting [3]), less than 40%; on RET (setting [4]) it was 28%; on PTK2 (FAK) (setting [5]), less than 40%; at PTK2 (FAK) (setting [6]), 28%. In addition, the inhibition at 10 µM at FLT4 (VEGFR3) (setting [7]) is 40 to 80%; on FLT4 (VEGFR3) (setting [8]) it was 52%.

Turning to `Fc1cccc(-c2cccn3nc(Nc4ccc5[nH]cnc5c4)nc23)c1` [Cpd. 293 in WO09155551, reference compound], the inhibition at 10 µM was greater than 80% on LYN B (setting [1]); 89% at LYN B (read-out: % Inhibition mean); greater than 80% on RET (setting [3]); 94% at RET (read-out: % Inhibition mean); greater than 80% at PTK2 (FAK) (setting [5]); 94% at PTK2 (FAK) (read-out: % Inhibition mean). Further, the inhibition at 10 µM on FLT4 (VEGFR3) (setting [7]) was greater than 80%; at FLT4 (VEGFR3) (read-out: % Inhibition mean) it was 94%.

Turning to `CCn1ncc2c1CCC(Nc1nc3c(-c4cccnc4)cccn3n1)C2` (centres unmarked) [Example 63, (1-Ethyl-4,5,6,7-tetrahydro-1H-indazol-5-yl)-(8-pyridin-3-yl-[1,2,4]triazolo[1,5-a]pyridine-2-yl)-amine], the inhibition at 10 µM at LYN B (setting [1]) is less than 40%; on LYN B (setting [2]), 13%; at RET (setting [3]) it was less than 40%; on RET (setting [4]), 20%; at PTK2 (FAK) (setting [5]), less than 40%; on PTK2 (FAK) (setting [6]) it was 13%. The values for the inhibition at 10 µM on FLT4 (VEGFR3) (setting [7]) and on FLT4 (VEGFR3) (setting [8]) were less than 40% and 32%, respectively.

With `CCn1ncc2c1CCC(Nc1nc3c(-c4ccccc4)cccn3n1)C2` (centres unmarked) [Example 57, (1-Ethyl-4,5,6,7-tetrahydro-1H-indazol-5-yl)-(8-phenyl-[1,2,4]triazolo[1,5-a]pyridine-2-yl)-amine], the inhibition at 10 µM at LYN B (setting [1]) was less than 40%; at LYN B (setting [2]) it was 20%; on RET (setting [3]), less than 40%; on PTK2 (FAK) (setting [5]) it was less than 40%; on PTK2 (FAK) (setting [6]) it was 16%; on FLT4 (VEGFR3) (setting [7]) it was 40 to 80%. For the same compound, the inhibition at 10 µM at FLT4 (VEGFR3) (setting [8]) came out at 43%.

`CCCCCn1ncc2c1CCC(Nc1nc3c(-c4ccc(F)cc4C)cccn3n1)C2` (centres unmarked) [Example 47, [8-(4-fluoro-2-methyl-phenyl)-[1,2,4]triazolo[1,5-a]pyridine-2-yl]-(1-pentyl-4,5,6,7-tetrahydro-1H-indazol-5-yl)-amine]: the inhibition at 10 µM is less than 40% at LYN B (setting [1]); 21% at LYN B (setting [2]); less than 40% at RET (setting [3]); 23% on RET (setting [4]); less than 40% at PTK2 (FAK) (setting [5]); 19% on PTK2 (FAK) (setting [6]). The inhibition at 10 µM is less than 40% at FLT4 (VEGFR3) (setting [7]) and 13% on FLT4 (VEGFR3) (setting [8]).

Regarding `CCCn1ncc2c1CCC(Nc1nc3c(-c4ccc(F)cc4C)cccn3n1)C2` (centres unmarked) [Example 43, [8-(4-fluoro-2-methyl-phenyl)-[1,2,4]triazolo[1,5-a]pyridine-2-yl]-(1-propyl-4,5,6,7-tetrahydro-1H-indazol-5-yl)-amine], the inhibition at 10 µM at LYN B (setting [1]) was less than 40%; on LYN B (setting [2]), 22%; on RET (setting [3]) it was less than 40%; at RET (setting [4]) it was 26%; at PTK2 (FAK) (setting [5]) it was less than 40%; on PTK2 (FAK) (setting [6]), 19%. In addition, the inhibition at 10 µM was less than 40% on FLT4 (VEGFR3) (setting [7]) and 11% on FLT4 (VEGFR3) (setting [8]).

`CCn1nc(Cl)c2c1CCC(Nc1nc3c(-c4ccc(F)cc4C)cccn3n1)C2` (centres unmarked) [Example 48, (3-Chloro-1-ethyl-4,5,6,7-tetrahydro-1H-indazol-5-yl)-[8-(4-fluoro-2-methyl-phenyl)-[1,2,4]triazolo[1,5-a]pyridine-2-yl]-amine]: the inhibition at 10 µM was less than 40% on LYN B (setting [1]); 22% at LYN B (setting [2]); less than 40% at RET (setting [3]); 18% at RET (setting [4]); less than 40% at PTK2 (FAK) (setting [5]); 24% on PTK2 (FAK) (setting [6]). The results for the inhibition at 10 µM on FLT4 (VEGFR3) (setting [7]) and on FLT4 (VEGFR3) (setting [8]) were less than 40% and 19%, respectively.

As for `CCn1ncc2c1CCC(Nc1nc3c(-c4cncc(OC)c4)cccn3n1)C2` (centres unmarked) [Example 70, (1-Ethyl-4,5,6,7-tetrahydro-1H-indazol-5-yl)-[8-(5-methoxy-pyridin-3-yl)-[1,2,4]triazolo[1,5-a]pyridine-2-yl]-amine], the inhibition at 10 µM was less than 40% at LYN B (setting [1]); 22% at LYN B (setting [2]); less than 40% on RET (setting [3]); 32% on RET (setting [4]); less than 40% at PTK2 (FAK) (setting [5]); 14% at PTK2 (FAK) (setting [6]). Besides, the inhibition at 10 µM on FLT4 (VEGFR3) (setting [7]) is less than 40%; at FLT4 (VEGFR3) (setting [8]) it was 28%.

In the case of `CCCCn1ncc2c1CCC(Nc1nc3c(-c4ccc(F)cc4C)cccn3n1)C2` (centres unmarked) [Example 46, [8-(4-fluoro-2-methyl-phenyl)-[1,2,4]triazolo[1,5-a]pyridine-2-yl]-(1-butyl-4,5,6,7-tetrahydro-1H-indazol-5-yl)-amine], the inhibition at 10 µM is less than 40% at LYN B (setting [1]); 23% at LYN B (setting [2]); less than 40% on RET (setting [3]); 26% at RET (setting [4]); less than 40% on PTK2 (FAK) (setting [5]); 24% at PTK2 (FAK) (setting [6]). Besides, the inhibition at 10 µM is less than 40% on FLT4 (VEGFR3) (setting [7]) and 29% at FLT4 (VEGFR3) (setting [8]).
